Experimental data taken from publication PMC9853847 (2023).

What was measured:
Test in all cases: FRET titration (MLCT donor to Cy5.5-labeled DNA), dose-response fit
[1] = system: 20-mer duplex (DNA, duplex) TGAGGATGTGTAGGTTGATG/CATCAACCTACACATCCTCA; conditions: 200 mM NaCl; 5 mM Tris, pH 7.5; 1 μM DNA
[2] = system: G-quadruplex (G4) (DNA, G4) AGGGTTAGGGTTAGGGTTAGGG; conditions: 100 mM KCl, 10 mM Tris.HCl, pH 7.4, 1 μM DNA
[3] = system: 3WJ (three-way junction) (DNA, junction) TGAGGATGTGTAGGTTGATG/CATCAACCTAAGAATGAGAC/GTCTCATTCTCACATCCTCA; conditions: 200 mM NaCl, 5 mM Tris, pH 7.5, 1 μM DNA
[4] = system: matched duplex (27-mer) (DNA, duplex) GACCAGCTTATCACCCCTAGATACCAT/ATGGTATCTAGGGGTGATAAGCTGGTC; conditions: 200 mM NaCl; 5 mM Tris, pH 7.5; 1 μM DNA
[5] = system: mismatch 1 duplex (27-mer, CC mismatch at 4 bp) (DNA, mismatch bulge abasic) GACCAGCTTATCACCCCTAGATACCAT/ATGGTATCTAGGGGTGATAAGCTCGTC; conditions: 200 mM NaCl; 5 mM Tris, pH 7.5; 1 μM DNA
[6] = system: mismatch 2 duplex (27-mer, CC mismatch at 14 bp) (DNA, mismatch bulge abasic) GACCAGCTTATCACCCCTAGATACCAT/ATGGTATCTAGGGCTGATAAGCTGGTC; conditions: 200 mM NaCl; 5 mM Tris, pH 7.5; 1 μM DNA
[7] = system: mismatch 3 duplex (27-mer, CC mismatch at 24 bp) (DNA, mismatch bulge abasic) GACCAGCTTATCACCCCTAGATACCAT/ATGCTATCTAGGGGTGATAAGCTGGTC; conditions: 200 mM NaCl; 5 mM Tris, pH 7.5; 1 μM DNA
[8] = not saturated, tested up to 20 μM

Kd [1] [µM] | Kd [2] [µM] | Kd [3] [µM] | Kd [4] [µM] | Kd [5] [µM] | Kd [6] [µM] | Kd [7] [µM] | Kd [2, 8] [µM] | Kd ([3]; tested up to 20 μM) [µM] | SMILES
2.3 ± 0.5 | 3.8 ± 1.7 | 4.4 ± 0.7 | 4.7 ± 0.1 | 4.6 ± 0.6 | 4.3 ± 0.6 | 5.1 ± 0.3 | – | – | Cc1ccc(-c2ccc(C)cn2)nc1.Cc1ccc(-c2ccc(C)cn2)nc1.[Ru+2].c1ccc2nc3c4cccnc4c4ncccc4c3nc2c1
2.6 ± 1.0 | – | 6.4 ± 0.3 | 7.9 ± 2.5 | 7.3 ± 2.5 | > 20 | 7.6 ± 1.9 | > 20 | – | Cc1ccc(-c2ccc(C)cn2)nc1.[Ru+2].c1ccc(-c2nc3c4cccnc4c4ncccc4c3[nH]2)cc1.c1ccc(-c2nc3c4cccnc4c4ncccc4c3[nH]2)cc1
6.3 ± 0.3 | – | – | 8.1 ± 1.7 | 6.4 ± 1.7 | 8.3 ± 3.0 | 8.1 ± 3.7 | > 20 | > 20 | Cc1ccc(-c2ccc(C)cn2)nc1.[Ru+2].c1ccc2nc3c4cccnc4c4ncccc4c3nc2c1.c1ccc2nc3c4cccnc4c4ncccc4c3nc2c1
2.8 ± 0.9 | 3.9 ± 1.3 | 4.3 ± 0.9 | 5.1 ± 0.4 | 5.0 ± 0.7 | 5.3 ± 0.6 | 6.5 ± 1.8 | – | – | [Ru+2].c1ccc(-c2ccccn2)nc1.c1ccc(-c2ccccn2)nc1.c1ccc2nc3c4cccnc4c4ncccc4c3nc2c1
